According to paper PMC7442133, “Reduced treatment frequencies with bumped kinase inhibitor 1369 are effective against porcine cystoisosporosis” (International Journal for Parasitology: Drugs and Drug …, 2020):
Several values for one entry are separate records, joined by “and”; a condition that tells them apart may be missing. Identical values can stand only once.

Key:
C. suis sporozoites = test: Invasion inhibition: sporozoites pre-incubated with BKI 1369, free merozoites counted 9 dpi in IPEC-1 cultures; assay type: cell-based, Cystoisospora suis
Description: The laboratory strain C. suis Wien I ([Joachim and Mundt, 2011]), was maintained by passage in suckling piglets every 3–6 months and infectivity in vivo was assessed regularly at the Institute of Parasitology, University of Veterinary Medicine, Vienna. Oocysts were purified from collected feces, brought to sporulation and stored as described elsewhere ([Worliczek et al., 2013]). For in vitro studies, sporozoites were excysted ([Worliczek et al., 2013]), enumerated with a hemocytometer and used immediately for infection of semi-permanent intestinal porcine epithelial cells (IPEC-1). For in vivo studies, sporulated oocysts were washed with tap water and enumerated prior to infection of piglets.
IPEC-1 cells were maintained in culture medium at 37 °C and 5% CO2 (DHEM/HAM12 supplemented with 5% fetal calf serum and penicillin/streptomycin; Gibco via Thermo Fisher, Vienna, Austria). Cells (4 × 10^4) were used to seed 24-well plates and grown to confluence. […] Cell viability in the presence of DMSO and BKIs was determined by colorimetric cell proliferation (WST-1) assays ([Shrestha et al., 2019]). […]
In order to test whether BKI 1369 affects initial host cell invasion by C. suis, freshly excysted sporozoites were pre-incubated with BKI 1369 or DMSO for 6 h at 37 °C. […] Readout for both growth (merozoite replication) and invasion-inhibition experiments was microscopical evaluation by counting free merozoites 9 days post-infection (dpi) from culture supernatants. Supernatants were collected and free merozoites were counted in pooled samples at 9 dpi from quadruplicate wells in C-Chip disposable hemocytometers (NanoEnTek/Roth Lactan, Graz, Austria). […]
Statistical calculations for in vivo trials were performed with RStudio version 1.1.453 (RStudio Team, 2018), descriptive statistics with Microsoft Excel 2010 (Microsoft Inc., Vienna, Austria) and GraphPad Prism version 5.04 for Windows (GraphPad Software, San Diego, California USA). […] In vitro assays were evaluated by t-tests with significance reported at P < 0.05. […]

[1] = Body weight development of experimentally infected suckling piglets; assay type: in vivo; conditions: for BW SD 8 / BW SD 15 / BW SD 22 / BW SD 29 / BW SD 1: SD in brackets; for BW SD 1: before treatment
[2] = design: species or system piglets; conditions: in vivo
Description: In experiment II, additional fecal samples were collected from piglets which shed oocysts after treatment with BKI 1369. Fecal DNA preparation was carried out by established procedures. PCR assays were used for the amplification of the genomic DNA fragments encoding CsCDPK1. PCR assays used primers upstream (166 and 91 base pairs of the start codon) and downstream (89 and 39 base pairs) of the CsCDPK1 stop codon fragment to generate templates for a subsequent nested run. Nested PCR amplification of the 5955 base pair fragment was achieved using the primer pair LIC_CsCDPK_Fwd: […] and LIC_CsCDPK_Rev: […]. PCR amplicons were cloned into TA TOPO 2 vectors (Invitrogen, Carlsbad, California, USA) and sequenced at GENEWIZ Inc. (Seattle, USA) to confirm the presence or absence of mutations that could affect drug sensitivity. Moreover, two piglets from each group were sacrificed at the end of the study (SD 29; 24 days after treatment) and tissue samples (liver, muscle, kidney, backfat, jejunum) were collected and processed similar to the fecal samples in experiment I, except that 20 nM propranolol was used as an internal standard instead of 100 μM, to determine residues of BKI 1369 and its metabolites.
Tissue and feces from vehicle control treated piglets were used as blanks or standards. Calibration curves for BKI 1369, BKI 1318, and BKI 1817 were prepared by adding 2 μL BKI in dimethylsulfoxide (DMSO) to 18 μL tissue or feces controls to generate nominal concentrations of 0.004, 0.008, 0.02, 0.04, 0.08, 0.2, 0.4, 0.8, 2, 5, 10, and 20 μM. Calibration curves were generated separately for each tissue type and feces.
5 μL of tissue homogenate curves and samples were added to tubes that contained 95 μL of 80:20 acetonitrile: water. As an internal standard, propranolol was added to each sample to a final concentration of 20 nM. Samples were dried to completion using a miVac Duo Concentrator (SP Scientific, Pennsylvania, USA) at 35 °C. Sample processing for feces was similar but utilized a slightly different process to concentrate the sample as explained in the methods. Dried Samples were sealed and shipped to the University of Washington for LC-MS/MS analysis.

[3] = Exp I group A: 1 × 20 mg/kg BW, SD 3 (0 dpi)
[4] = Exp I group B: 1 × 20 mg/kg BW, SD 5 (2 dpi)
[5] = Exp I group C: 2 × 20 mg/kg BW, SD 5 & 7 (2 & 4 dpi)
[6] = Exp II group W: 1 × 20 mg/kg BW, SD 5 (2 dpi)
[7] = Exp II group X: 1 × 10 mg/kg BW, SD 5 (2 dpi)
[8] = Exp II group Y: 1 × 5 mg/kg BW, SD 5 (2 dpi)

Compound: CCOc1ccc2cc(-c3nn(CC4CCN(C)CC4)c4ncnc(N)c34)ccc2n1 [BKI 1369]
- Pre-incubation concentrations that significantly reduced total merozoite counts at 9 dpi (C. suis sporozoites; sporozoites pre-incubated 6 h at 37 °C, washed, IPEC-1, P < 0.05 vs DMSO-only and no-treatment): ≥ 200 nM
- Pre-incubation concentrations that completely failed to inhibit host cell invasion (C. suis sporozoites; sporozoites pre-incubated 6 h at 37 °C, washed, IPEC-1, vs DMSO-only and no-treatment): ≤ 100 nM
- Inhibition of infection in vitro by pre-incubation of sporozoites (C. suis sporozoites; unless treatment was prolonged post-infection): completely failed to inhibit the infection
- BW SD 8 [1, 3]: 2604 [283.8] g
- BW SD 15 [1, 3]: 4198.4 [573.9] g
- BW SD 22 [1, 3]: 6082 [750.1] g
- BW SD 29 [1, 3]: 7956 [750.22] g
- BW SD 1 [1, 3]: 1276 [227.4] g
- BWG SD 8 to 15 (mean body weight gain, acute phase of infection) ([1]; Exp I group A: 1 × 20 mg/kg BW, SD 3 (0 dpi), control D 1042 g, 20 mg/kg): 1594 g and 1594.4 g
- BW SD 8 [1, 4]: 2530.9 [362.3] g
- BW SD 15 [1, 4]: 4292.7 [724.9] g
- BW SD 22 [1, 4]: 5892.7 [1225.6] g
- BW SD 29 [1, 4]: 7721.8 [1710.2] g
- BW SD 1 [1, 4]: 1214.5 [206.9] g
- BWG SD 8 to 15 (mean body weight gain, acute phase of infection) ([1]; Exp I group B: 1 × 20 mg/kg BW, SD 5 (2 dpi), control D 1042 g, 20 mg/kg): 1762 g and 1761.8 g
- BW SD 8 [1, 5]: 2494.5 [328.9] g
- BW SD 15 [1, 5]: 4267.3 [491.6] g
- BW SD 22 [1, 5]: 5950.9 [619.6] g
- BW SD 29 [1, 5]: 7867.3 [851.9] g
- BW SD 1 [1, 5]: 1163.6 [205.5] g
- BWG SD 8 to 15 (mean body weight gain, acute phase of infection) ([1]; Exp I group C: 2 × 20 mg/kg BW, SD 5 & 7 (2 & 4 dpi), control D 1042 g, 20 mg/kg): 1773 g and 1772.7 g
- BW SD 8 [1, 6]: 3148.0 [610.4] g
- BW SD 15 [1, 6]: 5140.0 [830.8] g
- BW SD 22 [1, 6]: 6952.0 [1204.0] g
- BW SD 29 [1, 6]: 9242.0 [1250.4] g
- BW SD 1 [1, 6]: 1606.0 [347.4] g
- BWG SD 8 to 15 (mean body weight gain, acute phase of infection) ([1]; Exp II group W: 1 × 20 mg/kg BW, SD 5 (2 dpi), control Z 389 g, 20 mg/kg): 1992 g and 1992.0 g
- BW SD 8 [1, 7]: 1968.0 [632.7] g
- BW SD 15 [1, 7]: 4606.0 [745.5] g
- BW SD 22 [1, 7]: 6502.0 [1068.4] g
- BW SD 29 [1, 7]: 8752.0 [2465.6] g
- BW SD 1 [1, 7]: 1472.0 [353.0] g
- BWG SD 8 to 15 (mean body weight gain, acute phase of infection) ([1]; Exp II group X: 1 × 10 mg/kg BW, SD 5 (2 dpi), control Z 389 g, 10 mg/kg): 1638 g and 1638.0 g
- BW SD 8 [1, 8]: 2771.1 [654.5] g
- BW SD 15 [1, 8]: 3891.1 [990.8] g
- BW SD 22 [1, 8]: 5782.2 [1340.1] g
- BW SD 29 [1, 8]: 8055.6 [1626.8] g
- BW SD 1 [1, 8]: 1444.4 [391.1] g
- BWG SD 8 to 15 (mean body weight gain, acute phase of infection) ([1]; Exp II group Y: 1 × 5 mg/kg BW, SD 5 (2 dpi), control Z 389 g, 5 mg/kg): 1120 g and 1120.0 g
- Body weight gain compared to control piglets (in words) ([1]; irrespective of time points and frequencies of treatment): significant increase in body weight gain
- Quantifiable residue values, all tissue types [2]: below 0.2 μM
- Residue in fat [2]: above background, but below LoQ
- Residue in jejunum [2]: above background, but below LoQ

Compound: CCOc1ccc2cc(-c3nn(CC4CCNCC4)c4ncnc(N)c34)ccc2n1 [BKI 1318]
- Residue in liver [2]: -Samples above LoQ BKI 1318: N/A -Samples above background, but below LoQ BKI 1318: liver from piglet 304 and muscle from piglet 302
